Reference: patent US20040110771A1, “7-(r)-aminotriazolopyrimidines, the production thereof and use of the same for combatting phytopathogenic fungi” (priority 2000, published 2004)

Assays:
Type in all cases: in vivo
[1] = system: Puccinia recondita; experiment: Curative activity against brown rust of wheat caused by Puccinia recondita; details: curative spray 24 h after inoculation, wheat seedlings "Kanzler", 7 days
Description: (§1) The active compounds were prepared separately or jointly as a 10% strength emulsion in a mixture of 70% by weight of cyclohexanone, 20% by weight of Nekanil® LN (Lutensol® AP6, wetting agent having emulsifying and dispersing action based on ethoxylated alkylphenols) and 10% by weight of Wettol® EM (nonionic emulsifier based on ethoxylated castor oil) and diluted with water to the desired concentration.
Leaves of potted wheat seedlings of the cultivar “Kanzler” were dusted with spores of brown rust (Puccinia recondita). The pots were then placed in a chamber with high atmospheric humidity (90 to 95%) at 20-22° C. for 24 hours. During this period, the spores germinated and the germinal tubes penetrated into the leaf tissue. The following day, the infected plants were sprayed to runoff point with an aqueous preparation of active compound which had been prepared from a stock solution made of 10% of active compound, 85% of cyclohexanone and 5% of emulsifier. After the spray coating had dried on, the test plants were cultivated in a greenhouse at 20-22° C. and 65-70% relative atmospheric humidity for 7 days. The extent of the rust fungus development on the leaves was then determined.

[2] = system: Pyrenophora teres; experiment: Activity against net blotch of barley caused by Pyrenophora teres; details: barley seedlings "Igri", inoculated 24 h after spraying, 6 days
Description: as §1
Leaves of potted barley seedlings of the cultivar “Igri” were sprayed to runoff point with an aqueous preparation of active compound which had been prepared from a stock solution made of 10% of active compound, 85% of cyclohexanone and 5% of emulsifier and were inoculated 24 hours after the spray coating had dried on with an aqueous spore suspension of Pyrenophora teres, the net blotch pathogen. The test plants were then placed in a greenhouse at 20-24° C. and 95-100% relative atmospheric humidity. After 6 days, the extent of the development of the disease was determined visually in % infection of the entire leaf area.

[3] = system: Blumeria graminis forma specialis tritici; experiment: Activity against mildew of wheat caused by Blumeria graminis forma specialis tritici; details: wheat seedlings "Kanzler", dusted with spores 24 h after spraying, 7 days
Description: as §1
Leaves of potted wheat seedlings of the cultivar “Kanzler” were sprayed to runoff point with an aqueous preparation of active compound which had been prepared from a stock solution made of 10% of active compound, 85% of cyclohexanone and 5% of emulsifier and were dusted 24 hours after the spray coating had dried on with spores of mildew of wheat (Blumeria graminis forma specialis tritici). The test plants were then placed in a greenhouse at 20-24° C. and 60-90% relative atmospheric humidity. After 7 days, the extent of the mildew development was determined visually in % infection of the entire leaf area.

Row | SMILES | % infection of the leaves after application of an aqueous preparation comprising . . . ppm of active compound ([1]; 16 ppm) [%] | % infection of the leaves after application of an aqueous preparation comprising . . . ppm of active compound ([1]; 63 ppm) [%] | % infection of the leaves after application of an aqueous preparation comprising . . . ppm of active compound ([1]; 250 ppm) [%] | % infection of the leaves after application of an aqueous preparation comprising . . . ppm of active compound ([2]; 16 ppm) [%] | % infection of the leaves after application of an aqueous preparation comprising . . . ppm of active compound ([2]; 63 ppm) [%] | % infection of the leaves after application of an aqueous preparation comprising . . . ppm of active compound ([2]; 250 ppm) [%] | % infection of the leaves after application of an aqueous preparation comprising . . . ppm of active compound ([3]; 16 ppm) [%] | % infection of the leaves after application of an aqueous preparation comprising . . . ppm of active compound ([3]; 63 ppm) [%] | % infection of the leaves after application of an aqueous preparation comprising . . . ppm of active compound ([3]; 250 ppm) [%]
1 | Cc1cccc(F)c1-c1c(Cl)nc2ncnn2c1NC(C)C(C)C (single isomer, unassigned) [I.-11a] | 80 | 5 | 5 | 5 | 0 | 0 | 7 | 7 | 5
2 | Cc1cccc(F)c1-c1c(Cl)nc2ncnn2c1N[C@H](C)C(C)C (single isomer, unassigned) [I.-11b] | – | 20 | 5 | – | 15 | 0 | – | 30 | 30
3 | CC[C@@H](C)Nc1c(-c2c(F)cccc2Cl)c(Cl)nc2ncnn12 [I.-1] | 5 | 3 | 0 | 50 | 0 | – | – | – | –
4 | CCC(C)Nc1c(-c2c(C)cccc2F)c(Cl)nc2ncnn12 (centres unmarked) [I.-10] | 60 | 40 | 15 | – | 3 | 3 | – | 60 | 15
5 | CC[C@@H](C)Nc1c(-c2c(F)cc(F)cc2F)c(Cl)nc2ncnn12 [I.-13] | 3 | 0 | – | 20 | – | – | 60 | 40 | –
6 | CC[C@@H](C)Nc1c(-c2ccc(F)cc2C)c(Cl)nc2ncnn12 [I.-22] | 30 | 5 | 3 | 7 | 0 | – | 5 | 3 | 3
7 | Cc1cc(F)ccc1-c1c(Cl)nc2ncnn2c1NC(C)C(C)C (centres unmarked) [I.-23] | 3 | 0 | 0 | 0 | – | – | 15 | 5 | 3
8 | CCCC[C@@H](C)Nc1c(-c2c(F)cc(F)cc2F)c(Cl)nc2ncnn12 [I.-27] | – | – | 40 | 3 | 0 | 0 | – | – | –
9 | COCC(C)Nc1c(-c2c(F)cc(F)cc2F)c(Cl)nc2ncnn12 (centres unmarked) [I.-32] | – | 70 | 15 | 5 | 0 | 0 | – | – | –
10 | CC[C@H](C)Nc1c(-c2c(F)cccc2Cl)c(Cl)nc2ncnn12 [comparison (S)-amine of I.-1] | 60 | 20 | 15 | 100 | 20 | – | – | – | –
11 | CC[C@H](C)Nc1c(-c2c(C)cccc2F)c(Cl)nc2ncnn12 [comparison (S)-amine of I.-10] | 100 | 100 | 100 | – | 100 | 40 | – | 100 | 100
12 | Cc1cccc(F)c1-c1c(Cl)nc2ncnn2c1NC(C)C(C)C [comparison (S)-amine of I.-11a] | 100 | 60 | 30 | 100 | 100 | 100 | 80 | 60 | 60
13 | CCCC[C@H](C)Nc1c(-c2c(F)cc(F)cc2F)c(Cl)nc2ncnn12 [comparison (S)-amine of I.-27] | – | – | 100 | 100 | 90 | 7 | – | – | –
14 | COC[C@H](C)Nc1c(-c2c(F)cc(F)cc2F)c(Cl)nc2ncnn12 [comparison (S)-amine of I.-32] | – | 100 | 80 | 90 | 80 | 30 | – | – | –
